Source: ChEMBL document CHEMBL3124873, “cis-1-Oxo-heterocyclyl-4-amido cyclohexane derivatives as NPY5 receptor antagonists” (Bioorg Med Chem Lett, 2014)
In brackets after ≈: the same amount, converted by molar mass.

Tests used:
[1] = target: T1, Neuropeptide Y receptor type 5 (Homo sapiens, UniProt Q15761); assay: Displacement of [125I]PYY from human NPY5 receptor transfected in LM(tk-) cell membranes after 120 mins by solid scintillation counting
T1 sequence (Q15761 whole entry): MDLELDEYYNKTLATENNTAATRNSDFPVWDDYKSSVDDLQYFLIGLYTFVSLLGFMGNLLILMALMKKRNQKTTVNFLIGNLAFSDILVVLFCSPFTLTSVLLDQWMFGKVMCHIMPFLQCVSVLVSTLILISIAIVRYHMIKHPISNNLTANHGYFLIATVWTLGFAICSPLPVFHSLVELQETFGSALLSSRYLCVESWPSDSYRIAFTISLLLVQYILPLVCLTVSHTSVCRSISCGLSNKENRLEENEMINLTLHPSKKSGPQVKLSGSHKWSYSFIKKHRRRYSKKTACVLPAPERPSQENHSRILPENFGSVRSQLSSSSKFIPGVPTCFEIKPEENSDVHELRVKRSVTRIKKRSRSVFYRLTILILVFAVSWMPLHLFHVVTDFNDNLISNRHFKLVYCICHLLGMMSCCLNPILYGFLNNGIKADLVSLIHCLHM

[2] = Plasma concentration in femoral artery cannulated Sprague-Dawley rat at 10 mg/kg, po after 1 hr by LC/MS/MS analysis; type: ADME, organism-based; set-up: dose 10 mg/kg, route oral
[3] = Ratio of drug level in brain to plasma in femoral artery cannulated Sprague-Dawley rat at 10 mg/kg, po after 1 hr by LC/MS/MS analysis; type: ADME, organism-based; set-up: dose 10 mg/kg, route oral; conditions: read-out: BPR
Liver microsome [4] = assay: Intrinsic clearance in human pooled liver microsomes at 1 uM by LC/MS analysis; type: ADME
[5] = Solubility of the compound at pH 7.4 by classic shake flask method; type: physicochemical; conditions: buffer
[6] = Drug uptake in femoral artery cannulated Sprague-Dawley rat brain at 10 mg/kg, po after 1 hr by LC/MS/MS analysis; type: ADME, organism-based; set-up: dose 10 mg/kg, route oral; conditions: read-out: Drug uptake
Liver microsome [7] = assay: Intrinsic clearance in rat pooled liver microsomes at 1 uM by LC/MS analysis; type: ADME
[8] = Volume of distribution at steady state in Sprague-Dawley rat at 1 mg/kg, iv and 2 mg/kg, po by LC/MS analysis; type: ADME, organism-based; conditions: in vivo, read-out: Vdss
[9] = Oral bioavailability in Sprague-Dawley rat at 2 mg/kg by LC/MS analysis; type: ADME, organism-based; conditions: in vivo
Rattus norvegicus = assay: AUC (0 to infinity) in Sprague-Dawley rat at 2 mg/kg, po by LC/MS analysis; type: ADME, organism-based, Plasma; set-up: time infinity, dose 2 mg/kg, route oral; conditions: in vivo
[10] = Clearance in Sprague-Dawley rat at 1 mg/kg, iv and 2 mg/kg, po by LC/MS analysis; type: ADME, organism-based; conditions: in vivo
[11] = Half life in Sprague-Dawley rat at 1 mg/kg, iv and 2 mg/kg, po by LC/MS analysis; type: ADME, organism-based; conditions: in vivo

| SMILES | Ki [1] | concentration at 1 h [2] | Kp at 1 h [3] | CLH (Liver microsome [4]) | solubility thermodynamic [5] | concentration at 1 h [6] | CLH (Liver microsome [7]) | Vd [8] | bioavailability [9] | AUC (Rattus norvegicus) | clearance [10] | half-life [11] |
| --- | --- | --- | --- | --- | --- | --- | --- | --- | --- | --- | --- | --- |
| CN(c1ccc(-c2cc(F)cc(F)c2)cn1)C(=O)[C@H]1CC[C@@H](N2CCCC2=O)CC1 | > 10000 nM |  |  |  |  |  |  |  |  |  |  |  |
| O=C1CCCN1[C@H]1CC[C@@H](C(=O)Nc2ncc(-c3cc(F)cc(F)c3)cn2)CC1 | 5 nM | 2800 nM | 0.14 | 0.7 L/min | 38 µg/mL (≈ 94.9 µM) | 380 nM | 31 mL/min |  |  |  |  |  |
| O=C1CCCCN1[C@H]1CC[C@@H](C(=O)Nc2ccc(-c3cc(F)cc(F)c3)cn2)CC1 | 2 nM |  |  |  |  |  |  |  |  |  |  |  |
| CN1CCN([C@H]2CC[C@@H](C(=O)Nc3ccc(-c4cc(F)cc(F)c4)cn3)CC2)C1=O | 5 nM | 5000 nM | 0.6 | 0.8 L/min | 1.1 µg/mL (≈ 2.65 µM) | 3100 nM | 8.8 mL/min | 2.8 L/kg | 110% | 4100 ng·h/mL | 9.5 mL/min/kg | 3.5 h |
| O=C1NCCCN1[C@H]1CC[C@@H](C(=O)Nc2ccc(-c3cc(F)cc(F)c3)cn2)CC1 |  |  |  | 1.1 L/min | 1.3 µg/mL (≈ 3.14 µM) |  | 18 mL/min |  |  |  |  |  |
| CN1CCCN([C@H]2CC[C@@H](C(=O)Nc3ccc(-c4cc(F)cc(F)c4)cn3)CC2)C1=O |  |  |  | 1.1 L/min | 5.4 µg/mL (≈ 12.6 µM) |  | 19 mL/min |  |  |  |  |  |
| CC(C)N1CCN([C@H]2CC[C@@H](C(=O)Nc3ccc(-c4cc(F)cc(F)c4)cn3)CC2)C1=O | 41 nM |  |  |  |  |  |  |  |  |  |  |  |
| O=C1N(C2CC2)CCN1[C@H]1CC[C@@H](C(=O)Nc2ccc(-c3cc(F)cc(F)c3)cn2)CC1 | 9 nM |  |  | 1 L/min |  |  | 8.4 mL/min |  |  |  |  |  |

The remaining lines, values ahead:

| Ki [1] | concentration at 1 h [2] | Kp at 1 h [3] | CLH (Liver microsome [4]) | solubility thermodynamic [5] | concentration at 1 h [6] | CLH (Liver microsome [7]) | Vd [8] | bioavailability [9] | AUC (Rattus norvegicus) | clearance [10] | half-life [11] | SMILES |
| --- | --- | --- | --- | --- | --- | --- | --- | --- | --- | --- | --- | --- |
| 6 nM |  |  | 0.9 L/min |  |  | 9.5 mL/min |  |  |  |  |  | O=C1CCCN1[C@H]1CC[C@@H](C(=O)Nc2cnc(-c3cc(F)cc(F)c3)cn2)CC1 |
|  | 3000 nM | 0.5 | 0.4 L/min | 4 µg/mL (≈ 9.96 µM) | 1500 nM | 9.5 mL/min | 3.4 L/kg | 83% | 2000 ng·h/mL | 14.2 mL/min/kg | 2.8 h | O=C1OCCN1[C@H]1CC[C@@H](C(=O)Nc2ccc(-c3cc(F)cc(F)c3)cn2)CC1 |
| 3 nM |  |  | 0.9 L/min |  |  | 7 mL/min |  |  |  |  |  | C[C@@H]1CN([C@H]2CC[C@@H](C(=O)Nc3ccc(-c4cc(F)cc(F)c4)cn3)CC2)C(=O)O1 |
| 7 nM |  |  | 1.1 L/min |  |  | 15 mL/min |  |  |  |  |  | C[C@H]1CN([C@H]2CC[C@@H](C(=O)Nc3ccc(-c4cc(F)cc(F)c4)cn3)CC2)C(=O)O1 |
| 5 nM | 6800 nM | 0.2 | 1.7 L/min | 4.5 µg/mL (≈ 11.2 µM) | 1400 nM | 37 mL/min |  |  |  |  |  | O=C1NCCN1[C@H]1CC[C@@H](C(=O)Nc2ccc(-c3cc(F)cc(F)c3)cn2)CC1 |
| 10 nM |  |  | 1.6 L/min | 1.6 µg/mL (≈ 3.73 µM) |  | 17 mL/min |  |  |  |  |  | CCN1CCN([C@H]2CC[C@@H](C(=O)Nc3ccc(-c4cc(F)cc(F)c4)cn3)CC2)C1=O |
| 8 nM | 2800 nM | 1 | 1 L/min | 0.7 µg/mL (≈ 1.75 µM) | 2800 nM | 12 mL/min | 3.2 L/kg | 110% | 4300 ng·h/mL | 8.67 mL/min/kg | 4.4 h | O=C1CCCN1[C@H]1CC[C@@H](C(=O)Nc2ccc(-c3cc(F)cc(F)c3)cn2)CC1 |
| 4 nM |  |  | 3.9 L/min |  |  | 25 mL/min |  |  |  |  |  | CC(C)(C)C1CN([C@H]2CC[C@@H](C(=O)Nc3ccc(-c4cc(F)cc(F)c4)cn3)CC2)C(=O)O1 (mixture of isomers) |
